# Paper PMC8460821, “Bio-oriented synthesis of new sulphadiazine derivatives for urease inhibition and their pharmacokinetic analysis” (Scientific Reports, 2021)
# Molecular target: Jack bean urease (Canavalia ensiformis, UniProt P07374)
# Assay: biochemical
# Conditions: not given
# Protocol: All the synthesized derivatives were subjected to anti-urease activity. In preliminary screening, all compounds were evaluated at 1 mM concentrations, and percentage inhibition was used as an indicator of activity. IC50 values were calculated for the scaffolds having percentage inhibition higher than 50%.
# Indophenol method was used to perform the urease inhibition. 10 µL of enzyme, 40 µL buffer, 10 µL of assay moiety, 40-µL each of phenol-reagents, and alkali reagent were present in the assay mixture. Firstly, incubation of assay compounds and enzyme was done in assay buffer at 37 °C for 30 min. Then, alkaline reagents and 40 µL of phenol were mixed to quench the mixture. 96 well plates were used in enzyme assay and for reading of absorbance at 625 nm a microplate reader was helpful. The experiment was done in triplicate and PRISM 4.0 was used to get IC50, positive control was thiourea.
# Sequence of Jack bean urease (P07374 whole entry, looked up): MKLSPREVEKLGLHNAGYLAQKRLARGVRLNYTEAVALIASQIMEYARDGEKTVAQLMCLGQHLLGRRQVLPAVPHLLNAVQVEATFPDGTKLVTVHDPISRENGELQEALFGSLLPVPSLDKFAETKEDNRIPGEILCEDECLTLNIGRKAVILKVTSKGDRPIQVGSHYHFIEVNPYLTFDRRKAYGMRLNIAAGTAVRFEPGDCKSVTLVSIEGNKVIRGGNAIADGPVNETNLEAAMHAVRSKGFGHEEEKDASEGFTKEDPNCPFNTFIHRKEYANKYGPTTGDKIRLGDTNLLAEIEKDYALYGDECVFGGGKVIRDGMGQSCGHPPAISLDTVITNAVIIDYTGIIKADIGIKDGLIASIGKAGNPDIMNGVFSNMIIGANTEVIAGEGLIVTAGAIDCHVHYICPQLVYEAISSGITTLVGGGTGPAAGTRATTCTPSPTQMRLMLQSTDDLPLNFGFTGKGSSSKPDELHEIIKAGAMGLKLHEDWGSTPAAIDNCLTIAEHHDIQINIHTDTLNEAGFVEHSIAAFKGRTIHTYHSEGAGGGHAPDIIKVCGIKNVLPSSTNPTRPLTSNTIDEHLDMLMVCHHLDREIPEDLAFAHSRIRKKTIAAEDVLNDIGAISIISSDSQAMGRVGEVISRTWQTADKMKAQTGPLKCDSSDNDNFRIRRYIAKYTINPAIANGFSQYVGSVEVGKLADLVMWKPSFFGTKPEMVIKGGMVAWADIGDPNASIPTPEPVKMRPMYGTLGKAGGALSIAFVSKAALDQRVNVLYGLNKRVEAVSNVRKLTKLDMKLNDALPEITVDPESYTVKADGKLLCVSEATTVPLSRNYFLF
row,SMILES,IC50
1,"O=S(=O)(Nc1ncccn1)c1ccc(N=Cc2ccccc2)cc1 [3a, 4-(Benzylideneamino)-N-(pyrimidin-2-yl)benzenesulfonamide]",2.32 ± 0.54 µM
2,"O=S(=O)(Nc1ncccn1)c1ccc(N=Cc2ccccc2O)cc1 [3b, 4-(2-Hydroxybenzylideneamino)-N-(pyrimidin-2-yl)benzenesulfonamide]",3.29 ± 2 µM
3,"O=[N+]([O-])c1ccc(C=Nc2ccc(S(=O)(=O)Nc3ncccn3)cc2)cc1 [3e, 4-(4-Nitrobenzylideneamino)-N-(pyrimidin-2-yl)benzenesulfonamide]",4.15 ± 0.77 µM
4,"CN(C)c1ccc(C=Nc2ccc(S(=O)(=O)Nc3ncccn3)cc2)cc1 [3f, 4-(4-(Dimethylamino)benzylideneamino)-N-(pyrimidin-2-yl)benzenesulfonamide]",13.14 ± 0.02 µM
5,"O=S(=O)(Nc1ncccn1)c1ccc(N=Cc2ccc(F)cc2)cc1 [3g, 4-(4-Fluorobenzylideneamino)-N-(pyrimidin-2-yl)benzenesulfonamide]",10.1 ± 0.45 µM
6,"COc1ccc(C=Nc2ccc(S(=O)(=O)Nc3ncccn3)cc2)cc1 [3h, 4-(4-Methoxybenzylideneamino)-N-(pyrimidin-2-yl)benzenesulfonamide]",45.6 ± 0.56 µM
7,"O=S(=O)(Nc1ncccn1)c1ccc(N=Cc2ccc(Cl)cc2O)cc1 [3i, 4-(4-Chloro-2-hydroxybenzylideneamino)-N-(pyrimidin-2-yl)benzenesulfonamide]",25.56 ± 0.22 µM
8,"O=S(=O)(Nc1ncccn1)c1ccc(N=Cc2ccc(F)cc2O)cc1 [3j, 4-(4-Fluoro-2-hydroxybenzylideneamino)-N-(pyrimidin-2-yl)benzenesulfonamide]",19 ± 1.23 µM
9,"O=S(=O)(Nc1ncccn1)c1ccc(N=Cc2ccc(O)cc2O)cc1 [3k, 4-(2,4-Dihydroxybenzylideneamino)-N-(pyrimidin-2-yl)benzenesulfonamide]",12.1 ± 2.43 µM
10,"O=S(=O)(Nc1ncccn1)c1ccc(N=Cc2ccc(F)cc2Br)cc1 [3l, 4-(2-Bromo-4-fluorobenzylideneamino)-N-(pyrimidin-2-yl)benzenesulfonamide]",2.21 ± 0.45 µM
11,"O=S(=O)(Nc1ncccn1)c1ccc(N=Cc2ccc(F)cc2Cl)cc1 [3m, 4-(2-Chloro-4-fluorobenzylideneamino)-N-(pyrimidin-2-yl)benzenesulfonamide]",15.7 ± 2.45 µM
12,"O=S(=O)(Nc1ncccn1)c1ccc(N=Cc2ccc(Br)cc2F)cc1 [3n, 4-(4-Bromo-2-fluorobenzylideneamino)-N-(pyrimidin-2-yl)benzenesulfonamide]",18.2 ± 1.78 µM
13,"O=S(=O)(Nc1ncccn1)c1ccc(N=Cc2ccc(Cl)cc2Br)cc1 [3o, 4-(2-Bromo-4-chlorobenzylideneamino)-N-(pyrimidin-2-yl)benzenesulfonamide]",5.04 ± 0.4 µM
14,"O=S(=O)(Nc1ncccn1)c1ccc(N=Cc2ccc(Cl)cc2F)cc1 [3p, 4-(4-Chloro-2-fluorobenzylideneamino)-N-(pyrimidin-2-yl)benzenesulfonamide]",17.07 ± 0.02 µM
15,"O=S(=O)(Nc1ncccn1)c1ccc(N=Cc2ccc(Cl)cc2Cl)cc1 [3q, 4-(2,4-Dichlorobenzylideneamino)-N-(pyrimidin-2-yl)benzenesulfonamide]",4.05 ± 1.1 µM
16,"O=S(=O)(Nc1ncccn1)c1ccc(N=Cc2ccc(F)cc2F)cc1 [3r, 4-(2,4-Difluorobenzylideneamino)-N-(pyrimidin-2-yl)benzenesulfonamide]",13.1 ± 2.55 µM
17,"O=S(=O)(Nc1ncccn1)c1ccc(N=Cc2ccc(Br)cc2Br)cc1 [3s, 4-(2,4-Dibromobenzylideneamino)-N-(pyrimidin-2-yl)benzenesulfonamide]",6.09 ± 0.45 µM
18,"O=S(=O)(Nc1ncccn1)c1ccc(N=Cc2ccc(O)cc2)cc1 [3t, 4-(4-Hydroxybenzylideneamino)-N-(pyrimidin-2-yl)benzenesulfonamide]",8.9 ± 2.45 µM

# Same assay, conditions: incubation 37 °C 30 min, absorbance 625 nm, triplicate; positive control thiourea
row,SMILES,IC50 urease inhibition
1,"O=S(=O)(Nc1ncccn1)c1ccc(N=Cc2cc(Br)ccc2O)cc1 [3c, 4-(5-Bromo-2-hydroxybenzylideneamino)-N-(pyrimidin-2-yl)benzenesulfonamide]",inactivation of the compound

# Same assay, conditions: incubation 37 °C 30 min, absorbance 625 nm, triplicate; positive control thiourea; read-out: IC50 urease inhibition
row,SMILES,IC50
1,"NC(N)=S [thiourea, reference compound]",20 ± 2.06 µM

# Same assay, conditions: ratio of urease IC50 values
row,SMILES,Potency relative to standard thiourea
1,"O=S(=O)(Nc1ncccn1)c1ccc(N=Cc2ccc(F)cc2Br)cc1 [3l, 4-(2-Bromo-4-fluorobenzylideneamino)-N-(pyrimidin-2-yl)benzenesulfonamide]",10 times

# System: not given
# Assay: not given
# Conditions: not given
row,SMILES,melting point
1,"O=S(=O)(Nc1ncccn1)c1ccc(N=Cc2ccccc2)cc1 [3a, 4-(Benzylideneamino)-N-(pyrimidin-2-yl)benzenesulfonamide]",269 to 271 °C
2,"COc1ccc(C=Nc2ccc(S(=O)(=O)Nc3ncccn3)cc2)c(O)c1 [3d, 4-(2-Hydroxy-4-methoxybenzylideneamino)-N-(pyrimidin-2-yl)benzenesulfonamide]",266 to 267 °C
3,"O=[N+]([O-])c1ccc(C=Nc2ccc(S(=O)(=O)Nc3ncccn3)cc2)cc1 [3e, 4-(4-Nitrobenzylideneamino)-N-(pyrimidin-2-yl)benzenesulfonamide]",274 to 276 °C
4,"CN(C)c1ccc(C=Nc2ccc(S(=O)(=O)Nc3ncccn3)cc2)cc1 [3f, 4-(4-(Dimethylamino)benzylideneamino)-N-(pyrimidin-2-yl)benzenesulfonamide]",275 to 277 °C
5,"O=S(=O)(Nc1ncccn1)c1ccc(N=Cc2ccc(F)cc2)cc1 [3g, 4-(4-Fluorobenzylideneamino)-N-(pyrimidin-2-yl)benzenesulfonamide]",283 to 285 °C
6,"COc1ccc(C=Nc2ccc(S(=O)(=O)Nc3ncccn3)cc2)cc1 [3h, 4-(4-Methoxybenzylideneamino)-N-(pyrimidin-2-yl)benzenesulfonamide]",287 to 289 °C
7,"O=S(=O)(Nc1ncccn1)c1ccc(N=Cc2ccc(Cl)cc2O)cc1 [3i, 4-(4-Chloro-2-hydroxybenzylideneamino)-N-(pyrimidin-2-yl)benzenesulfonamide]",285 to 287 °C
8,"O=S(=O)(Nc1ncccn1)c1ccc(N=Cc2ccc(F)cc2O)cc1 [3j, 4-(4-Fluoro-2-hydroxybenzylideneamino)-N-(pyrimidin-2-yl)benzenesulfonamide]",279 to 281 °C
9,"O=S(=O)(Nc1ncccn1)c1ccc(N=Cc2ccc(O)cc2O)cc1 [3k, 4-(2,4-Dihydroxybenzylideneamino)-N-(pyrimidin-2-yl)benzenesulfonamide]",280 to 282 °C
10,"O=S(=O)(Nc1ncccn1)c1ccc(N=Cc2ccc(F)cc2Br)cc1 [3l, 4-(2-Bromo-4-fluorobenzylideneamino)-N-(pyrimidin-2-yl)benzenesulfonamide]",285 to 287 °C
11,"O=S(=O)(Nc1ncccn1)c1ccc(N=Cc2ccc(F)cc2Cl)cc1 [3m, 4-(2-Chloro-4-fluorobenzylideneamino)-N-(pyrimidin-2-yl)benzenesulfonamide]",277 to 279 °C
12,"O=S(=O)(Nc1ncccn1)c1ccc(N=Cc2ccc(Br)cc2F)cc1 [3n, 4-(4-Bromo-2-fluorobenzylideneamino)-N-(pyrimidin-2-yl)benzenesulfonamide]",291 to 293 °C
13,"O=S(=O)(Nc1ncccn1)c1ccc(N=Cc2ccc(Cl)cc2Br)cc1 [3o, 4-(2-Bromo-4-chlorobenzylideneamino)-N-(pyrimidin-2-yl)benzenesulfonamide]",277 to 279 °C
14,"O=S(=O)(Nc1ncccn1)c1ccc(N=Cc2ccc(Cl)cc2F)cc1 [3p, 4-(4-Chloro-2-fluorobenzylideneamino)-N-(pyrimidin-2-yl)benzenesulfonamide]",275 to 277 °C
15,"O=S(=O)(Nc1ncccn1)c1ccc(N=Cc2ccc(Cl)cc2Cl)cc1 [3q, 4-(2,4-Dichlorobenzylideneamino)-N-(pyrimidin-2-yl)benzenesulfonamide]",291 to 293 °C
16,"O=S(=O)(Nc1ncccn1)c1ccc(N=Cc2ccc(F)cc2F)cc1 [3r, 4-(2,4-Difluorobenzylideneamino)-N-(pyrimidin-2-yl)benzenesulfonamide]",279 to 281 °C
17,"O=S(=O)(Nc1ncccn1)c1ccc(N=Cc2ccc(Br)cc2Br)cc1 [3s, 4-(2,4-Dibromobenzylideneamino)-N-(pyrimidin-2-yl)benzenesulfonamide]",273 to 275 °C
18,"O=S(=O)(Nc1ncccn1)c1ccc(N=Cc2ccc(O)cc2)cc1 [3t, 4-(4-Hydroxybenzylideneamino)-N-(pyrimidin-2-yl)benzenesulfonamide]",271 to 273 °C
19,"Cc1ccc(C=Nc2ccc(S(=O)(=O)Nc3ncccn3)cc2)c(O)c1 [3u, 4-(2-Hydroxy-4-methylbenzylideneamino)-N-(pyrimidin-2-yl)benzenesulfonamide]",279 to 281 °C
